Results: patent US6458746B1, “Plant growth regulating formulations” (BASF Aktiengesellschaft, priority 1998, dated 2002)

Tests used:
Type in all cases: in vivo
[1] = system: rice; experiment: Greenhouse shoot length test, rice; details: 1% formulations in cyclohexanone: Emulan EL = 4:1; further: key: 0: no effect; +: low activity; ++: intermediate activity; +++: high activity
Method: (§1) Unless otherwise noted, the growth regulating proerties of different compounds in different formulations were determined under greenhouse conditions as follows: […]
(§2) Test plants were grown in plastic pots of approximately 12.5 cm in diameter in a substrate provided with sufficient nutrients and water. At an appropriate shoot length the plants were treated with aqueous sprays of the formulations. The growth-regulating action observed was confirmed at the end of the experiment by measuring the height of the plants. The results obtained were compared with the growth height of the untreated plants.

[2] = system: rice seedlings [cvs. “Koshihikari” (tall), “Tan-ginbozu” (dwarf), “Waito C” (dwarf)]; experiment: Shoot growth of rice seedlings, combinations with GA3; details: for Shoot growth Waito C [% of Control] / Shoot growth Tan-ginbozu [% of Control] / Shoot growth Koshihikari [% of Control]: 7 days after treatment, 1 kg/ha ammonium sulphate added; for Shoot growth Waito C [% of Control]: 100% = 8.7 cm; for Shoot growth Tan-ginbozu [% of Control]: 100% = 9.4 cm; for Shoot growth Koshihikari [% of Control]: 100% = 17.4 cm
Method: as §1, §2
The synergizing effect of compound VII on shoot elongation in rice is shown in the results of Example 7.
Enhanced shoot growth of rice seedlings [cvs. “Koshihikari” tall), “Tan-ginbozu” (dwarf), “Waito C” (dwarf)] 7 days after treatment with combinations of compound 6 with GA3^d

[3] = system: small grains and rice (wheat, barley, oats, rye, rice); experiment: Shoot length reduction in small grains and rice (statements across species); details: Examples 1 and 2
Method: as §1, §2

[4] = system: rye; experiment: Greenhouse shoot length test, rye; details: 1% formulations in cyclohexanone: Emulan EL = 4:1; further: key: 0: no effect; +: low activity; ++: intermediate activity; +++: high activity
Method: as §1, §2

[5] = system: spring wheat (cv. “Ralle”); experiment: Shoot height reduction in spring wheat, synergistic combinations
Method: as §1, §2
(§3) To show the synergistic effects of formulations in accordance with the instant invention together with further growth regulating agents, formulations in accordance with the invention were prepared and additional active ingredients added.
Shoot height reduction in spring wheat (cv. “Ralle”) 21 days after treatment with combinations of standard compound S4 and compound VII
Shoot height reduction in spring wheat (cv. “Ralle”) 13 days after treatment with combinations of standard compound S5 and compound VII

[6] = system: wheat; experiment: Greenhouse shoot length test, wheat; details: for Shoot length Wheat [% of control]: 1% formulations in Atlas G 1086; for Shoot length [% of control] Wheat: 2.5 g/ha ai; on Shoot length reduction [activity, relative to control] in wheat: key: 0: no effect; +: low activity; ++: intermediate activity; +++: high activity
Method: as §1, §2
(§4) Assays with wheat, barley, oat, and rye plants were carried out as described above. The aqueous spray solutions were prepared as follows: […]

[7] = system: spring barley (cv. “Alexis”); experiment: Shoot height reduction in spring barley, synergistic combinations; details: 20 days after treatment
Method: as §1, §2, §3
Shoot height reduction in spring barley (cv. “Alexis”) 20 days after treatment with combinations of standard compound S2 and compound VII
Shoot height reduction in spring barley (cv. “Alexis”) 20 days after treatment with combinations of standard compound S4 and compound VII

[8] = system: barley; experiment: Greenhouse shoot length test, barley; details: for Shoot length Barley [% of control]: 1% formulations in Atlas G 1086; for Shoot length [% of control] Barley: 2.5 g/ha ai
Method: as §1, §2, §4

[9] = system: oats; experiment: Greenhouse shoot length test, oats; details: 1% formulations in cyclohexanone: Emulan EL = 4:1; further: key: 0: no effect; +: low activity; ++: intermediate activity; +++: high activity
Method: as §1, §2

[10] = 1% formulations in cyclohexanone: Emulan EL = 4:1

exo-16,17-Dihydro-GA5-13-acetate [Comp. VII]
Shoot length reduction [activity, relative to control] in rice [1]: +++ | Shoot growth Waito C [% of Control] ([2]; VII 12.5 g/ha ai): 80 % of Control | Shoot growth Tan-ginbozu [% of Control] ([2]; VII 12.5 g/ha ai): 74 % of Control | Shoot growth Koshihikari [% of Control] ([2]; VII 12.5 g/ha ai): 75 % of Control | Shoot growth Waito C [% of Control] ([2]; VII 25.0 g/ha ai): 80 % of Control | Shoot growth Tan-ginbozu [% of Control] ([2]; VII 25.0 g/ha ai): 74 % of Control | Shoot growth Koshihikari [% of Control] ([2]; VII 25.0 g/ha ai): 75 % of Control | Shoot growth Waito C [% of Control] ([2]; VII 50.0 g/ha ai): 80 % of Control | Shoot growth Tan-ginbozu [% of Control] ([2]; VII 50.0 g/ha ai): 74 % of Control | Shoot growth Koshihikari [% of Control] ([2]; VII 50.0 g/ha ai): 75 % of Control | effect on shoot elongation in rice ([2]; applied alone): reduces shoot elongation | effect on the shoot growth-promoting effect of GA3 ([2]; applied in combination with GA3): could clearly be raised | shoot length reduction compared with compounds II to V [3]: superior to compounds II to V | Shoot length reduction [activity, relative to control] in rye [4]: +++ | % Shoot height reduction Actual ([5]; 3 g/ha a.i., 21 days after treatment): 8% | % Shoot height reduction Actual ([5]; 6 g/ha a.i., 13 days after treatment): 18% | % Shoot height reduction Actual ([5]; 6 g/ha a.i., 21 days after treatment): 21% | Shoot length reduction [activity, relative to control] in wheat [6, 10]: +++ | Shoot length Wheat [% of control] ([6]; 1.6 g/ha ai): 90 % of control | Shoot length [% of control] Wheat ([6]; adjuvant Ethanol 500 g/ha): 99 % of control | Shoot length [% of control] Wheat ([6]; adjuvant R 15 500 g/ha): 73 % of control | Shoot length Wheat [% of control] ([6]; 3.1 g/ha ai): 73 % of control | Shoot length Wheat [% of control] ([6]; 6.3 g/ha ai): 70 % of control | Shoot length Wheat [% of control] ([6]; 12.5 g/ha ai): 64 % of control | % Shoot height reduction Actual ([7]; 3 g/ha a.i.): 6% | % Shoot height reduction Actual ([7]; 3 g/ha a.i., S4/VII table): 6% | % Shoot height reduction Actual ([7]; 6 g/ha a.i.): 18% | % Shoot height reduction Actual ([7]; 6 g/ha a.i., S4/VII table): 18% | Shoot length reduction [activity, relative to control] in barley [8, 10]: +++ | Shoot length Barley [% of control] ([8]; 1.6 g/ha ai): 97 % of control | Shoot length [% of control] Barley ([8]; adjuvant Ethanol 500 g/ha): 99 % of control | Shoot length [% of control] Barley ([8]; adjuvant R 15 500 g/ha): 75 % of control | Shoot length Barley [% of control] ([8]; 3.1 g/ha ai): 78 % of control | Shoot length Barley [% of control] ([8]; 6.3 g/ha ai): 61 % of control | Shoot length Barley [% of control] ([8]; 12.5 g/ha ai): 57 % of control | Shoot length reduction [activity, relative to control] in oats [9]: +++
